Laboratory results: patent US10092566B2, “Composition for controlling a gut immunity and use thereof” (SEOUL NATIONAL UNIVERSITY R&DB FOUNDATION, priority 2013, dated 2018)

Tests used:
E. carotovora-pyrE::Tn5 = test: Gut infection and survival analysis; assay type: in vivo, Erwinia carotovora; conditions: coingestion of 1 nM uracil with E. carotovora-pyrE::Tn5
Excerpt: During the late exponential phase, different bacteria (E. carotovora, E. carotovora-pyrE::Tn5, E. carotovora-pyrE::Tn5-pyrE, E. carotovora-guaA::Tn5, and E. carotovora-purC::Tn5) were obtained by the centrifugation, and the pellets were washed with PBS and suspended in a 5% sucrose solution. Without a hunger stage, to continuously provide Drosophila with bacteria while being infected, male adult Drosophila (5 to 6 days old) were moved to the bottle with filter paper soaked with a 5% sucrose solution containing different bacteria. The filter paper was changed every day. During the recovery experiment, the coingestion of E. carotovora-pyrE::Tn5 (+uracil) and 1 nM of uracil or the expression of an E. carotovora-pyrE::Tn5 strain, which was genetically recovered by the expression of functional pyrE genes (+pyrE), was utilized.

PLCβ = PLCβ position in cell membrane (PLCβ-RFP flies); assay type: in vivo, Drosophila; conditions: uracil 20 nM for 2 hours
Procedure: Genetically modified Drosophila containing PLCβ-RFP (UAS-PLCβ-RFP; Da-GAL4) were used to monitor activated PLCβ generation which is targeted in the membrane as disclosed in the previous research (Ha et al., Nat Immunol 10, pp. 949-957, 2009). A 5% sucrose solution containing 20 nM of uracil was ingested by Drosophila (5 to 6 days old) for 2 hours.

Ce-DUOX1 = test: ROS (DUOX-dependent H2O2) measurement in C. elegans; assay type: in vivo; conditions: uracil-containing media, 2 hours
Excerpt: C. elegans were raised and maintained as disclosed in the previous research (Chavez et al., Infect Immun 77, pp. 4983-4989, 2009). As disclosed in the previous research, L1 nematodes were fed with bacteria containing Ce-DUOX1-RNAi vectors throughout the step L4 to introduce Ce-DUOX1-RNAi (Chavez et al., Infect Immun 77, pp. 4983-4989, 2009). Standard feeding system RNAi process using Ce-DUOX1-RNAi may cause a developmental disability which indicates a serious level of mortality. As disclosed in the previous research, to give a partial knock-down effect, Ce-DUOX1-RNAi bacteria were mixed with bacteria containing control RNAi at a ratio of 1:70. In the early adult stage, nematodes were obtained and washed with M9 minimal media. Nematodes (about 200 to 300 individuals) were placed in a 96-well plate comprising uracil-containing media ([…]) at 20° C. for 2 hours.
DUOX-dependent H2O2, as basically disclosed in the previous research (Chavez et al., Infect Immun 77, pp. 4983-4989, 2009), was measured at room temperature for 2 hours following addition of […] of Amplex UltraRed solution (Invitrogen) and […] of reacting buffer including 0.2 units/mL of horseradish peroxidase (Sigma). Fluorescence of each sample was measured by fluorescent microplate readers at 530 nm of excitation wavelength and 590 nm of emission wavelength. […]

DUOX2 = test: ROS measurement in human epithelial cells (Caco-2, NHNE; DCF-DA); assay type: cell-based; conditions: uracil 50 nM, 15 minutes; Caco-2 and normal human nasal epithelial cells
Excerpt: Human middle turbinated bone specimens were obtained from healthy volunteers after the research proposal was approved by Yonsei University College of Medicine Audit Committee. The culture system used for normal human nasal epithelial (NHNE) cells is disclosed in the previous research (Yoon et al., Am J Respir Cell Mol Biol 16, pp. 724-731, 1997; Yoon et al., Ann Otol Rhinol Laryngol 109, pp. 594-601, 2000). Briefly speaking, two passages of NHNE cells (1×10^5 cells/culture) were inoculated into a Transwell-transparent culturing insert characterized by 24.5 mm and 0.45 μm pore sizes (Costar Co., Corning, N.Y., USA) containing 0.5 mL of culturing media. The cells were cultured in a 1:1 mixture containing basic epithelium growth media including all additives disclosed in the previous research (Yoon et al., Ann Otol Rhinol Laryngol 109, pp. 594-601, 2000) and Dulbecco' s Modified Eagle Medium (DMEM). […]
After stimulating NHNE cells or Caco-2 cells, the cells were washed with Hanks' balanced salt solution (HBSS), were placed in Krebs-Ringer solution containing 5 μM of 2′,7′-dichlorofluorescin diacetate (DCF-DA; Molecular Probes, Eugene Oreg., USA), and cultured in darkness for 10 minutes. […] Fluorescence was measured at an excitation wavelength of 488 nm and an emission wavelength ranging from 515 nm to 540 nm. […]

Question: Which “host survival rate after URA− pathogen infection” value (E. carotovora-pyrE::Tn5) does the source give for `O=c1cc[nH]c(=O)[nH]1` [uracil] here?
Answer: sufficient to restore the host survival rate

Question: And the “PLC activation (membrane localization of active PLC)” value (PLCβ)?
Answer: PLC activation

Question: What about the “DUOX-dependent ROS generation in C. elegans” value (Ce-DUOX1) of the same molecule?
Answer: able to activate DUOX-dependent ROS generation

Question: What about the “DUOX-dependent ROS generation in human mucosal epithelial cells” value (DUOX2) of the same molecule?
Answer: able to activate DUOX-dependent ROS generation
